From PubChem BioAssay (NCI)
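These data come from cells grown in 96-well plates and exposed to compound for 48 hours at five concentrations. GI50 marks 50% less growth. TGI marks complete inhibition of growth.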

Legend:
Test in all cases: NCI tumour cell line growth inhibition, 48 h
[1] = test system: 786-0 renal
[2] = test system: SK-MEL-2 melanoma
[3] = test system: HOP-62 NSCLC
[4] = test system: HL-60(TB) leukemia
[5] = test system: MDA-MB-231 breast
[6] = test system: TK-10 renal
[7] = test system: HOP-92 NSCLC
[8] = test system: NCI/ADR-RES ovarian
[9] = test system: SF-295 CNS
[10] = test system: SNB-75 CNS

## C(=C\c1nccc2c1[nH]c1ccccc12)/c1ccccc1
[1]
  GI50: 3.49 µM
  TGI: 10.7 µM
[2]
  GI50: 5.82 µM
  TGI: 39.7 µM
[3]
  GI50: 2.97 µM
  TGI: 22.3 µM
[4]
  GI50: 2.07 µM
  TGI: 5.55 µM
[5]
  GI50: 1.76 µM
  TGI: 8.02 µM
[6]
  GI50: 6.58 µM
  TGI: 25.5 µM
[7]
  GI50: 2.19 µM
  TGI: 19.8 µM
[8]
  GI50: 3.1 µM
  TGI: 20.3 µM
[9]
  GI50: 0.714 µM
  TGI: 3.21 µM
[10]
  GI50: 2.76 µM
  TGI: 21.9 µM

## CC(O)C(O)C(O)C(/C=N\Nc1ccccc1)=N/Nc1ccccc1 (centres undefined)
[1]
  TGI: 29.8 µM
[2]
  TGI: 21.5 µM
[3]
  TGI: 30.3 µM
[4]
  TGI: 45.3 µM
[5]
  TGI: 27.3 µM
[6]
  TGI: 35.4 µM
[7]
  TGI: 36 µM
[8]
  TGI: 40.2 µM
[9]
  TGI: 25.7 µM
[10]
  TGI: 38.4 µM

## COc1cc(C2=NN(c3ccc(S(N)(=O)=O)cc3)C(c3ccc(Cl)cc3)C2)cc(OC)c1OC (centres undefined)
[1]
  GI50: 6.43 µM
  TGI: > 100 µM
[2]
  GI50: 3.35 µM
  TGI: 14.1 µM
[3]
  GI50: 5.8 µM
  TGI: > 100 µM
[4]
  GI50: 3.94 µM
  TGI: > 100 µM
[5]
  GI50: 3.95 µM
  TGI: > 100 µM
[6]
  GI50: 3.27 µM
  TGI: > 100 µM
[7]
  GI50: 2.02 µM
  TGI: 14.5 µM
[8]
  GI50: 3.76 µM
  TGI: > 100 µM
[9]
  GI50: 2.53 µM
  TGI: 6.55 µM
[10]
  GI50: 2.22 µM
  TGI: > 100 µM

## C#Cc1cccc(Oc2ccc(NC(=O)CCl)cc2)c1
[1]
  GI50: > 82.5 µM
  TGI: > 82.5 µM
[2]
  GI50: > 82.5 µM
  TGI: > 82.5 µM
[3]
  GI50: > 82.5 µM
  TGI: > 82.5 µM
[4]
  GI50: 63.4 µM
  TGI: > 82.5 µM
[5]
  GI50: > 82.5 µM
  TGI: > 82.5 µM
[6]
  GI50: > 82.5 µM
  TGI: > 82.5 µM
[7]
  GI50: > 82.5 µM
  TGI: > 82.5 µM
[8]
  GI50: > 82.5 µM
  TGI: > 82.5 µM
[9]
  GI50: > 82.5 µM
  TGI: > 82.5 µM
[10]
  GI50: > 82.5 µM
  TGI: > 82.5 µM

## O=C(CNc1ncco1)Nc1ccc(S(=O)(=O)c2ccc(NC(=O)CNc3ncco3)cc2)cc1
[1]
  GI50: 3.95 µM
  TGI: 18.3 µM
[2]
  GI50: 2.49 µM
  TGI: 5.65 µM
[3]
  GI50: 2.07 µM
  TGI: 4.09 µM
[4]
  GI50: 4.72 µM
  TGI: 21.3 µM
[5]
  GI50: 2.66 µM
  TGI: 7.38 µM
[6]
  GI50: 11.7 µM
  TGI: 25 µM
[7]
  GI50: 3.37 µM
  TGI: 13 µM
[8]
  GI50: 3.02 µM
  TGI: 19.6 µM
[10]
  GI50: 6.04 µM
  TGI: 20.7 µM

## CCOC(=O)N[C@H]1CCc2c(Br)c(OC)c(OC)c(OC)c2-c2ccc(SC)c(=O)cc21
[1]
  GI50: 0.0318 µM
  TGI: 25.1 µM
[3]
  GI50: 0.0232 µM
  TGI: 41.2 µM
[4]
  GI50: < 0.01 µM
  TGI: 0.0131 µM
[5]
  GI50: < 0.01 µM
  TGI: 5.17 µM
[6]
  GI50: 3.8 µM
  TGI: > 60.4 µM
[7]
  GI50: < 0.0137 µM
  TGI: 6.19 µM
[8]
  GI50: 0.025 µM
  TGI: 7.58 µM
[9]
  GI50: < 0.01 µM
  TGI: 3.79 µM
[10]
  GI50: < 0.01 µM
  TGI: 16.1 µM

## COc1cc(-c2cc(/C=C3\C(=O)Nc4ccccc43)[nH]n2)cc(OC)c1OC
[1]
  GI50: 5.1 µM
  TGI: 20.2 µM
[2]
  GI50: 2.27 µM
  TGI: 5.57 µM
[3]
  GI50: 3.2 µM
  TGI: 14.9 µM
[4]
  GI50: 2.62 µM
  TGI: 7.66 µM
[5]
  GI50: 4.07 µM
  TGI: 27.7 µM
[7]
  GI50: 1.97 µM
  TGI: 9.12 µM
[8]
  GI50: 2.33 µM
  TGI: 6.67 µM
[9]
  GI50: 2.84 µM
  TGI: 11.6 µM
[10]
  GI50: 1.18 µM
  TGI: 10 µM
